Measurements from patent US20220378923A1, “BET DEGRADER” (KYOWA KIRIN CO., LTD., priority 2019, published 2022).
Read-outs that look alike come from different tables or passages of the source.

Tests used:
SU-DHL-4 cells = experiment: Inhibitory effect on cell viability in SU-DHL-4 cell line (Test Example 1); assay type: cell-based, human; settings: 72 hours; for IC50: SU-DHL-4 (wild type) cells, calculated using the measurement results of test example 1, read-out: SU-DHL-4 WT IC50; for IC90: SU-DHL-4 cells, Cell Counting Kit-8, concentration showing 90% inhibition of cell viability, read-out: SU-DHL-4 Cell Viability Inhibition Rate IC90
Summary of the method: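 SU-DHL-4 cells were grown at 37° C. under 5% CO2 in RPMI1640 with 10 vol % heat-inactivated FBS plus penicillin/streptomycin, seeded and precultured for 18 to 25 hours, then exposed to test compound at 0.1 vol % DMSO for 72 hours. Viability was read with Cell Counting Kit-8 by absorbance at 450 nm.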

[1] = system: MYC mRNA expression in SU-DHL-4 cells; experiment: Suppressive effect on MYC mRNA expression (Test Example 2); assay type: cell-based, human; settings: test compound 100 nmol/L, 6 hours, qRT-PCR corrected by ACTB, GAPDH; for inhibition at 0.1 µM: Homo sapiens, HPRT1, read-out: Suppression Rate of MYC mRNA Expression (%); for Suppression Rate of MYC mRNA Expression (%): HPRT1
Description: The cells were passaged twice a week at a volume of 20-40 mL so as to maintain a cell concentration of 1×10^6 cells/mL or less. The cultured SU-DHL-4 cells were seeded at 6×10^5 cells/well in a transparent 6-well plate (Code No. 140675, Thermo Fisher Scientific). After seeding, the cells were precultured at 37° C. in a carbon dioxide gas incubator for 18 to 25 hours. […] At this time, the final concentration of DMSO was adjusted to be 0.1 vol %. After adding the test compound, the cells were cultured at 37° C. in a carbon dioxide gas incubator for 6 hours. Then, the cells were collected by centrifugation and used for extraction of mRNA. mRNA extraction from cells was performed using Maxwell® 16 LEV simplyRNA Purification Kits (Code No. AS1270, Promega). The mRNA recovery protocol was performed according to the manufacturer's recommended protocol attached to the kit. […] The cDNA conversion was performed, according to the manufacturer's recommended protocol attached to the kit, in 0.020 mL of the reaction solution, and GeneAmp® PCR System 9700 (Applied Biosystems) was used. The cDNA-converted sample was diluted 10-fold by adding 0.180 mL of RNase Free Water (Code No. 10977-023, Thermo Fisher Scientific) and used for quantitative real-time polymerase chain reaction (qRT-PCR). For the calibration curve of qRT-PCR, 0.08 mL of RNase Free Water was added to a cDNA sample using DMSO as a test compound for 5-fold dilution. Further, two 5-fold dilutions were prepared stepwise, and these three samples were used as the calibration curve samples. The following reagents were used for qRT-PCR: TaqMan Gene Expression Assays, Inventoried (Primer probe: Code No. 4331182, Thermo Fisher Scientific, Assay ID: (i) MYC: Hs00153408_m1, (ii) ACTB: Hs01060665_g1, (iii) GAPDH: Hs04420697_g1, (iv) HPRT1: […] Universal PCR Master Mix, no AmpEraseR UNG (Master Mix: Code No. 4367846, Thermo Fisher Scientific). Primer probe (0.001 mL), Master Mix (0.010 mL), water (0.004 mL) and the diluted cDNA sample (0.005 mL) were mixed, and qRT-PCR analysis was performed. For qRT-PCR analysis, QuantStudio 7 Flex (Thermo Fisher Scientific) or 7500 Fast Real-Time PCR (Applied Biosystems) was used to measure in Fast mode and analyze. […] Corrected MYC expression=A/B • A: MYC expression level • B: Geometric mean of expression levels of ACTB, GAPDH and HPRT1 Using the corrected values, the suppression rate of MYC expression for the wells to which the test compound was not added was calculated by the following formula. […] Corrected MYC expression level in a well containing test compound • D: Corrected MYC expression level in a well to which test compound was not added

SMILES: CCC(=O)N1c2ccccc2[C@H](Nc2ccc(C(=O)NCCCNC(=O)c3ccc(N[C@@H]4C[C@H](C)N(C(=O)CC)c5ccccc54)cc3)cc2)C[C@@H]1C (relative stereo) [Compound 1a, N,N′-(Propane-1,3-diyl)bis(4-{[(2S*,4R*)-2-methyl-1-propionyl-1,2,3,4-tetrahydroquinolin-4-yl]amino}benzamide)]
- IC50 (SU-DHL-4 cells; Homo sapiens): 1.13 nM
- inhibition at 0.1 µM [1]: 96.7%

SMILES: CCC(=O)N1c2ccccc2[C@H](Nc2ccc(C(=O)NC3CCN(C(=O)c4ccc(N[C@@H]5C[C@H](C)N(C(=O)CC)c6ccccc65)cc4)CC3)cc2)C[C@@H]1C (relative stereo) [Compound 1c, 4-{[(2S*,4R*)-2-Methyl-1-propionyl-1,2,3,4-tetrahydroquinolin-4-yl]amino}-N-[1-(4-{[(2S*,4R*)-2-methyl-1-propionyl-1,2,3,4-tetrahydroquinolin-4-yl]amino}benzoyl)piperidin-4-yl]benzamide]
- IC50 (SU-DHL-4 cells; Homo sapiens): 2.93 nM
- inhibition at 0.1 µM [1]: 97.3%

SMILES: CCC(=O)N1c2ccccc2[C@H](Nc2ccc(NC(=O)CCNC(=O)c3ccc(N[C@@H]4C[C@H](C)N(C(=O)CC)c5ccccc54)cc3)cc2)C[C@@H]1C (relative stereo) [Compound 2f, 4-{[(2S,4R)-2-Methyl-1-propionyl-1,2,3,4-tetrahydroquinolin-4-yl]amino}-N-{3-[(4-{[(2S*,4R*)-2-methyl-1-propionyl-1,2,3,4-tetrahydroquinolin-4-yl]amino}phenyl)amino]-3-oxopropyl}benzamide]
- IC50 (SU-DHL-4 cells; Homo sapiens): 0.09 nM
- inhibition at 0.1 µM [1]: 98.6%

SMILES: CCC(=O)N1c2ccccc2[C@H](Nc2ccc(NC(=O)C3CN(C(=O)c4ccc(N[C@@H]5C[C@H](C)N(C(=O)CC)c6ccccc65)cc4)C3)cc2)C[C@@H]1C (relative stereo) [Compound 2h, 1-(4-{[(2S,4R)-2-Methyl-1-propionyl-1,2,3,4-tetrahydroquinolin-4-yl]amino}benzoyl)-N-(4-{[(2S*,4R*)-2-methyl-1-propionyl-1,2,3,4-tetrahydroquinolin-4-yl]amino}phenyl)azetidine-3-carboxamide]
- IC50 (SU-DHL-4 cells; Homo sapiens): 0.03 nM
- inhibition at 0.1 µM [1]: 98.2%

SMILES: CCC(=O)N1c2ccccc2[C@H](Nc2ccc(NC(=O)CCSc3ccc(N[C@@H]4C[C@H](C)N(C(=O)CC)c5ccccc54)cc3)cc2)C[C@@H]1C (relative stereo) [Compound 4e, N-(4-{[(2S*,4R*)-2-Methyl-1-propionyl-1,2,3,4-tetrahydroquinolin-4-yl]amino}phenyl)-3-[(4-{[(2S,4R)-2-methyl-1-propionyl-1,2,3,4-tetrahydroquinolin-4-yl]amino}phenyl)thio]propanamide]
- IC50 (SU-DHL-4 cells; Homo sapiens): 0.3 nM
- inhibition at 0.1 µM [1]: 98.4%

SMILES: CCC(=O)N1c2ccccc2[C@H](Nc2ccc(NC(=O)N3CCN(C(=O)c4ccc(N[C@@H]5C[C@H](C)N(C(=O)CC)c6ccccc65)cc4)CC3)cc2)C[C@@H]1C (relative stereo) [Compound 6m, 4-(4-(((2S,4R)-2-Methyl-1-propionyl-1,2,3,4-tetrahydroquinolin-4-yl)amino)benzoyl)-N-(4-(((2S*,4R*)-2-methyl-1-propionyl-1,2,3,4-tetrahydroquinolin-4-yl)amino)phenyl)piperazine-1-carboxamide]
- IC50 (SU-DHL-4 cells; Homo sapiens): 0.08 nM
- inhibition at 0.1 µM [1]: 97%

SMILES: CCC(=O)N1c2ccccc2[C@H](Nc2ccc(NC(=O)C#CCNC(=O)C3CCC(N[C@@H]4C[C@H](C)N(C(=O)CC)c5ccccc54)CC3)cc2)C[C@@H]1C (relative stereo) [Compound 8g, (1R,4r)-4-(((2S*,4R*)-2-Methyl-1-propionyl-1,2,3,4-tetrahydroquinolin-4-yl)amino)-N-(4-((4-(((2S,4R)-2-methyl-1-propionyl-1,2,3,4-tetrahydroquinolin-4-yl)amino)phenyl)amino)-4-oxobut-2-yn-1-yl)cyclohexane-1-carboxamide]
- IC50 (SU-DHL-4 cells): 0.008 nM
- IC90 (SU-DHL-4 cells): 0.01 nM
- Suppression Rate of MYC mRNA Expression (%) [1]: 96.6%

SMILES: CCC(=O)N1c2ccccc2[C@H](N[C@H]2CC[C@H](NC(=O)C#CCNC(=O)[C@H]3CC[C@H](N[C@@H]4C[C@H](C)N(C(=O)CC)c5ccccc54)CC3)CC2)C[C@@H]1C (relative stereo) [Compound 9d, (1R,4R)-4-(((2S*,4R*)-2-Methyl-1-propionyl-1,2,3,4-tetrahydroquinolin-4-yl)amino)-N-(4-(((1R,4R)-4-(((2S,4R)-2-methyl-1-propionyl-1,2,3,4-tetrahydroquinolin-4-yl)amino)cyclohexyl)amino)-4-oxobut-2-yn-1-yl)cyclohexane-1-carboxamide]
- IC50 (SU-DHL-4 cells): 0.75 nM
- IC90 (SU-DHL-4 cells): 0.93 nM
- Suppression Rate of MYC mRNA Expression (%) [1]: 98.0%

SMILES: CCC(=O)N1c2ccccc2[C@H](Nc2ccc(-n3cc(CNC(=O)N4CCC(N[C@@H]5C[C@H](C)N(C(=O)CC)c6ccccc65)CC4)nn3)cc2)C[C@@H]1C (relative stereo) [Compound 10b, 4-(((2S*,4R*)-2-Methyl-1-propionyl-1,2,3,4-tetrahydroquinolin-4-yl)amino)-N-((1-(4-(((2S,4R)-2-methyl-1-propionyl-1,2,3,4-tetrahydroquinolin-4-yl)amino)phenyl)-1H-1,2,3-triazol-4-yl)methyl)piperidine-1-carboxamide]
- IC50 (SU-DHL-4 cells; Homo sapiens): 0.34 nM
- inhibition at 0.1 µM [1]: 96.6%

SMILES: CCC(=O)N1c2ccccc2[C@H](Nc2ccc(C(=O)NCCCNC(=O)c3ccc(C4=N[C@@H](CC(=O)OC(C)(C)C)c5nnc(C)n5-c5sc(C)c(C)c54)cc3)cc2)C[C@@H]1C [Compound 1h, tert-Butyl 2-[(S)-2,3,9-trimethyl-4-(4-{[3-(4-{[(2S,4R)-2-methyl-1-propionyl-1,2,3,4-tetrahydroquinolin-4-yl]amino}benzamide)propyl]carbamoyl}phenyl)-6H-thieno[3,2-f][1,2,4]triazolo[4,3-a][1,4]diazepin-6-yl]acetate]
- IC90 (SU-DHL-4 cells): 0.27 nM

SMILES: Cc1sc2c(c1C)C(c1ccc(C(=O)NCc3cn(-c4ccc(C5=N[C@@H](CC(=O)OC(C)(C)C)c6nnc(C)n6-c6sc(C)c(C)c65)cc4)nn3)cc1)=N[C@@H](CC(=O)OC(C)(C)C)c1nnc(C)n1-2 [Compound 3b, tert-Butyl 2-[(S)-4-(4-{4-[(4-{(S)-6-[2-(tert-butoxy)-2-oxoethyl]-2,3,9-trimethyl-6H-thieno[3,2-f][1,2,4]triazolo[4,3-a][1,4]diazepin-4-yl}benzamide)methyl]-1H-1,2,3-triazol-1-yl}phenyl)-2,3,9-trimethyl-6H-thieno[3,2-f][1,2,4]triazolo[4,3-a][1,4]diazepin-6-yl]acetate]
- IC90 (SU-DHL-4 cells): 0.18 nM

SMILES: CCC(=O)N1c2ccccc2[C@H](Nc2ccc(NC(=O)CCCC(=O)Nc3ccc(N[C@@H]4C[C@H](C)N(C(=O)CC)c5ccccc54)cc3)cc2)C[C@@H]1C [Compound 6k, N^1,N^5-Bis(4-(((2S,4R)-2-methyl-1-propionyl-1,2,3,4-tetrahydroquinolin-4-yl)amino)phenyl)glutaramide]
- inhibition at 0.1 µM [1]: 97%

SMILES: CCC(=O)N1c2ccccc2[C@H](Nc2ccc(-n3cc(CCNC(=O)[C@H]4CC[C@H](N[C@@H]5C[C@H](C)N(C(=O)CC)c6ccccc65)CC4)nn3)cc2)C[C@@H]1C [Compound 8a, (1R,4r)-4-(((2S,4R)-2-Methyl-1-propionyl-1,2,3,4-tetrahydroquinolin-4-yl)amino)-N-(2-(1-(4-(((2S,4R)-2-methyl-1-propionyl-1,2,3,4-tetrahydroquinolin-4-yl)amino)phenyl)-1H-1,2,3-triazol-4-yl)ethyl)cyclohexane-1-carboxamide]
- IC90 (SU-DHL-4 cells): 0.87 nM
